Patent US20120196927A1, “PROPHYLACTIC AND/OR THERAPEUTIC AGENT FOR METABOLIC SYNDROME” (priority 2009, published 2012)
Blank lines part the entries; values can stand above or below the compound they belong to.

Columns and labels:
C57BL/6J-ob/ob mice [1] = format: in vivo, mouse; conditions: p.o. daily 5 weeks, nobiletin 200 mg/kg/day (No200), Pioglitazone 30 mg/kg/day (P30)
Description: (§6) Diabetes model mice and the experimental system were as follows. As the diabetes model mice, 7 week age of male C57BL/6J-ob/ob (hereinafter, it was referred to as “ob/ob”) were purchased from Charles River Laboratories Japan Inc., and used as 10 mice/group.
For the negative control group (from FIGS. 5 to 10, it was shown as Vehicle; hereinafter, it is referred to as “solvent administration group”), 0.3% of CMC aqueous solution was administrated orally for 5 weeks in everyday at the dosage of 0.01 mL/g body weight. For the positive control group (in FIGS. 5 to 10 and hereinafter, it was referred to as “P30 administrated group”), 3 mg of Pioglitazone was suspended in 0.3% CMC aqueous solution so as to be orally administrated at the dosage of 0.01 mL/g body weight for 5 weeks in everyday (dosage: 30 mg/kg body weight/day).
For the sample ingestion group (in FIGS. 5 to 10 and hereinafter, it is referred to as “No200 ingestion group”), 20 mg of nobiletin purified as mentioned above (1) was suspended in 0.3% of carboxymethylcellulose (CMC) aqueous solution so as to be orally administrated at the dose of 0.01 mL/g body weight for 5 weeks in everyday (the dose: 200 mg/kg/day).
The body weight of mice, ingestion amount, weight of the white adipose tissue and liver weight of each mice were measured as the same as described in the example 3.

[2] = tested on: GLUT4, Adiponectin, TNF-α, MCP-1, IL-6, PPARγ, aP2, LPL, Perilipin genes; test: Diabetes model mice: mRNA expression in the white adipose tissue (real time RT-PCR); format: in vivo, mouse; conditions: ob/ob mice, Vehicle = 1.00, nobiletin 200 mg/kg/day, Pioglitazone 30 mg/kg/day, 5 weeks
Description: (§1) The effects by nobiletin ingestion to the mRNA expression in the white adipose tissue and the liver were measured (n=10).
(§2) After the termination of the administration period for 5 weeks, mRNA expression levels of respective genes shown in the table 10 were determined by using real time RT-PCR method. The real time RT-PCR was carried out according to an operation manual provided by ISOGEN (NIPPON GENE CO., LTD); RNA was extracted from the white adipose tissue and the liver. Next, cDNA was prepared from using 1 μg of RNA by using Reverse Transcription System kit (Promega Corp., USA). Next, suitable primers for the above-mentioned genes were prepared according to the operation manual provided by FastStart universal SYBR (a registered trademark) Greenmaster PCR KIT agent (Roche Diagnostics K. K., Germany).
(§3) Real time PCR system 7700HT (Applied Biosytems, USA) was used for the determination to carry out the real time PCR by using the cDNAs as templates. Each reaction conditions were set according to the manual of the PCR KIT. Quantitative analysis of the RNA amount was carried out based on comparative Ct method by using glyceraldehyde 3-phosphate dehydrogenase (GAPDH) as the standard reference.

C57BL/6J-ob/ob mice [3] = test: Diabetes model mice: oral glucose tolerance test (OGTT); format: in vivo, mouse; conditions: nobiletin 200 mg/kg/day, Pioglitazone 30 mg/kg/day
Description: The oral glucose tolerance test (OGTT) for the diabetes model mice (ob/ob) to which the nobiletin and others were administrated was subjected to the glucose tolerance test for studying the effects.
From 4 weeks after the start of the administration, the mice in each group were fasted for 16 hours, and then they were administrated 2 g/kg body weight of glucose per os. After the administration of glucose, […] of blood was collected from the tail vein at the time point of 0, 30, 60 and 120 minutes. Collected blood was centrifuged at 4° C., 3,000×g, for 15 minute to obtain plasma (n=10). The blood glucose level was measured as the same as that described in the example 1.

GLUT4 protein = test: Diabetes model mice: GLUT4 protein expression level (Western blotting); format: in vivo, mouse; conditions: ob/ob mice, nobiletin 200 mg/kg/day, Pioglitazone 30 mg/kg/day
Description: After finishing the experiment, the white adipose tissue and skeletal muscle were excised according to that described in the example 1, protein expression level of GLUT 4 were detected by using Western blotting method. The expression levels of GLUT4 protein were determined by using Na^+/K^+ ATPase α-1 protein as an internal reference.

C57BL/6J-ob/ob mice [4] = conditions: nobiletin 200 mg/kg/day, Pioglitazone 30 mg/kg/day, 5 weeks
Description: as §6
For the negative control group (from FIGS. 5 to 10, it was shown as Vehicle; hereinafter, it is referred to as “solvent administration group”), 0.3% of CMC aqueous solution was administrated orally for 5 weeks in everyday at the dosage of 0.01 mL/g body weight. For the positive control group (in FIGS. 5 to 10 and hereinafter, it was referred to as “P30 administrated group”), 3 mg of Pioglitazone was suspended in 0.3% CMC aqueous solution so as to be orally administrated at the dosage of 0.01 mL/g body weight for 5 weeks in everyday (dosage: 30 mg/kg body weight/day). […]
The blood insulin level was measured as described in below. […] As lipids in plasma, concentrations of neutral fat (TG) and total cholesterol (T-CHO) were measured. Plasma insulin level was measured by using rebis insulin mouse (type U) (Shibayagi Co. Ltd.) based on the enzyme-immunoassay.

[5] = tested on: gluconeogenesis-related genes PEPCK, G6Pase; test: Diabetes model mice: mRNA expression in the liver (real time RT-PCR); format: in vivo, mouse; conditions: ob/ob mice, Vehicle = 1.00, nobiletin 200 mg/kg/day, Pioglitazone 30 mg/kg/day, 5 weeks
Description: as §1, §2, §3

C57BL/6J-ob/ob mice [6] = test: Diabetes model mice: fasting blood glucose level; format: in vivo, mouse; conditions: nobiletin 200 mg/kg/day, Pioglitazone 30 mg/kg/day p.o.
Description: Two weeks or 5 weeks from the beginning of the administration, the fasting blood glucose was measured (n=10). The measurement of the blood glucose level was carried out as the same as that of the example 1.

[7] = tested on: GLUT4 gene and PPARγ gene; test: Tangeretin, obesity-induced mice: mRNA expression of GLUT4 and PPARγ (real time RT-PCR); format: in vivo, mouse; conditions: HFD = 1, tangeretin 200 mg/kg/day p.o. 5 weeks
Description: mRNA expression level was determined by using real time PCR as follows. According to the direction attached with ISOGEN (Nippon Gene Co., Ltd), RNA was extracted from white adipose tissue, liver, and skeletal muscle. Next, cDNA was prepared from 1 μg of RNA by using Reverse Transcription System kit (Promega, USA). Subsequently, according to the direction attached with FastStart universal SYBR (Registered trademark) Greenmaster PCR kit reagent (Roche Diagnostics, Germany), primers suitable for each intended gene in the following experiments were synthesized. Real time PCR system 7700 HT (Applied Biosytems, USA) was used for the measurement, the cDNA was used as templates for the real time PCR. Reaction conditions were followed to those for the PCR kit reagents. Quantitative analysis of RNA level was performed by Comparison Ct method, using glyceraldehyde 3-phosphate dehydrogenase (GAPDH) as the standard.
As the same as that in the Example 1, after the completion of the experiment, the white adipose tissue was excised to determine the both mRNA expression levels of GLUT4 gene mRNA and PPARγ gene by using the real time RT-PCR. Ratios of the expression levels when that of the HFD is 1 were shown in the table 18 and FIGS. 11A and 11B.

C57BL/6 male mice [8] = test: Tangeretin, obesity-induced mice: tissue weight; format: in vivo, mouse; conditions: HFD obesity-induced mice, tangeretin 200 mg/kg/day p.o. 5 weeks
Excerpt: (§4) Six week age of C57BL/6 male mice were preliminary kept for 1 week (−9 to −8 week), and then classified into three groups. […] was given to one group, and HFD was given to other two groups, for 8 weeks (−8 to +5 week). From 8 weeks (15 week age) to 13 weeks, the following agents were given to each group for 5 weeks per os (hereinafter, they were referred to as LFD administration group and HFD administration group in the Example 6). The compositions of the LFD or HFD were the same as those in the Example 3.
(§5) To the LFD administration group (n=8) and the HFD administration group (n=11), 0.3% CMC aqueous solution was given at the amount of 0.01 mL/g of the body weight. […] The schedule of the feed ingestion and the agent administration of the above-mentioned 3 groups were schematically shown in FIG. 12A.
After the completion of the experiment, the mice in each group were dissected to excise organs and so forth to measure their weight. The white adipose tissue was excised from retroperitoneum and periphery of epididymis.

C57BL/6 male mice [9] = test: Tangeretin, obesity-induced mice: body weight gain and ingestion amount; format: in vivo, mouse; conditions: HFD obesity-induced C57BL/6 mice
Excerpt: as §4, §5
The ingestion amount of the mice in each group was measured twice a week. The ingestion amounts in 24 hours/3 mice/cage were measured and obtained as mean average of each group for 5 weeks.

C57BL/6 male mice [10] = test: Tangeretin, obesity-induced mice: oral glucose tolerance test (OGTT); format: in vivo, mouse; conditions: tangeretin 200 mg/kg/day p.o., HFD
Description: The oral glucose tolerance test (OGTT) was carried out as the same as that in the example 1.

C57BL/6 male mice [11] = test: Tangeretin, obesity-induced mice: blood TG and T-CHO level; format: in vivo, mouse; conditions: fasting, tangeretin 200 mg/kg/day p.o., HFD
Description: After the completion of the experiment, blood neutral fat level in fasting state was measured at the time points of beginning of the experiment, two and five weeks after the administration.
The blood neutral fat (TG) level was measured as the same as that employed in the example 1.
The total cholesterol (T-CHO) level in blood was measured as the same as that in the Example.

C57BL/6 male mice [12] = test: Tangeretin, obesity-induced mice: blood glucose in fasting state; format: in vivo, mouse; conditions: tangeretin 200 mg/kg/day p.o., HFD
Description: The blood glucose level was measured as the same as that of the example 1. […] As mentioned above, it was shown that tangeretin has the inhibition effects of the blood glucose level in the fasting state when the high fat diet was ingested.

[13] = Western blotting, Vehicle = 1.00, 5 weeks

Structure (SMILES): CCc1ccc(CCOc2ccc(CC3SC(=O)NC3=O)cc2)nc1 (stereo not shown) [Pioglitazone, reference compound]
Gained body weight (C57BL/6J-ob/ob mice [1]): 10.83 ± 0.58 g | white adipose tissue (C57BL/6J-ob/ob mice [1]): 5.70 ± 0.17 g | Gene expression level (ratio), [W]Adiponectin [2]: 1.58 ± 0.02 | Gene expression level (ratio), [W]GLUT4 [2]: 1.15 ± 0.02 | Gene expression level (ratio), [W]IL-6 [2]: 0.19 ± 0.12 | Gene expression level (ratio), [W]LPL [2]: 0.93 ± 0.04 | Gene expression level (ratio), [W]MCP-1 [2]: 0.44 ± 0.10 | Gene expression level (ratio), [W]PPARγ [2]: 1.13 ± 0.02 | Gene expression level (ratio), [W]Perilipin [2]: 1.37 ± 0.13 | Gene expression level (ratio), [W]TNF-α [2]: 1.08 ± 0.01 | Gene expression level (ratio), [W]aP2 [2]: 2.03 ± 0.01 | Blood glucose level (OGTT) (C57BL/6J-ob/ob mice [3]; 0 min after 2 g/kg glucose p.o.): 144.67 ± 8.96 mg/dL | Blood glucose level (OGTT) (C57BL/6J-ob/ob mice [3]; 30 min after 2 g/kg glucose p.o.): 273.55 ± 14.15 mg/dL | Blood glucose level (OGTT) (C57BL/6J-ob/ob mice [3]; 60 min after 2 g/kg glucose p.o.): 170.60 ± 4.45 mg/dL | Blood glucose level (OGTT) (C57BL/6J-ob/ob mice [3]; 120 min after 2 g/kg glucose p.o.): 175.79 ± 18.06 mg/dL | Gene expression level (ratio), Skeletal muscle (GLUT4 protein) (GLUT4 protein; [13]): 3.15 | Gene expression level (ratio), White adipose tissue (GLUT4 protein) (GLUT4 protein; [13]): 2.24 | GLUT4 protein expression amount in the skeletal muscle, times higher than vehicle administration group (GLUT4 protein): ~3 times | GLUT4 protein expression level in the white adipose tissue, times higher than vehicle administration group (GLUT4 protein): 2.2 times | Adiponectin level in blood, times higher than solvent administration group (C57BL/6J-ob/ob mice [4]): ≥ 2.5 times | Gene expression level (ratio), [L]G6Pase [5]: 0.23 ± 0.04 | Gene expression level (ratio), [L]PEPCK [5]: 0.57 ± 0.01 | Blood glucose level (fasting) (C57BL/6J-ob/ob mice [6]; 0 week after administration): 183.61 ± 16.51 mg/dL | Blood glucose level (fasting) (C57BL/6J-ob/ob mice [6]; 2 weeks after administration): 132.50 ± 7.86 mg/dL | Blood glucose level (fasting) (C57BL/6J-ob/ob mice [6]; 5 weeks after administration): 144.67 ± 8.96 mg/dL

Tissue Weight, Kidney (C57BL/6 male mice [8]): 0.31 ± 0.01 g/100 g of body weight | Tissue Weight, Liver (C57BL/6 male mice [8]): 1.48 ± 0.11 g/100 g of body weight
Structure (SMILES): COc1ccc(-c2cc(=O)c3c(OC)c(OC)c(OC)c(OC)c3o2)cc1 [tangeretin]
Expression level (ratio), [M]GLUT4 ([7]; skeletal muscle mRNA): 1.72 | Expression level (ratio), [W]GLUT4 ([7]; white adipose tissue mRNA): 0.42 | Expression level (ratio), [W]PPARγ ([7]; white adipose tissue mRNA): 0.43 | Tissue weight, Epididymis white adipose tissue (C57BL/6 male mice [8]): 0.99 ± 0.12 g/100 g of body weight | Tissue weight, Retroperitoneum white adipose tissue (C57BL/6 male mice [8]): 2.38 ± 0.09 g/100 g of body weight | Tissue weight, White adipose tissue in total (C57BL/6 male mice [8]): 3.38 ± 0.16 g/100 g of body weight | Body weight gain (C57BL/6 male mice [9]; tangeretin 200 mg/kg/day p.o. 5 weeks (HFD+T200)): 3.94 ± 0.45 g | Ingestion amount (C57BL/6 male mice [9]; tangeretin 200 mg/kg/day p.o., mean of 5 weeks): 2.47 ± 0.24 g/day | Blood glucose level (OGTT) (C57BL/6 male mice [10]; 0 min after glucose): 124.75 ± 7.14 mg/dL | Blood glucose level (OGTT) (C57BL/6 male mice [10]; 15 min after glucose): 347.43 ± 11.82 mg/dL | Blood glucose level (OGTT) (C57BL/6 male mice [10]; 30 min after glucose): 309.73 ± 17.88 mg/dL | Blood glucose level (OGTT) (C57BL/6 male mice [10]; 60 min after glucose): 274.14 ± 19.04 mg/dL | Blood glucose level (OGTT) (C57BL/6 male mice [10]; 120 min after glucose): 265.19 ± 15.82 mg/dL | Blood TG level (C57BL/6 male mice [11]; 0 weeks after administration): 108.70 ± 7.75 mg/dL | Blood TG level (C57BL/6 male mice [11]; 2 weeks after administration): 107.89 ± 9.46 mg/dL | Blood TG level (C57BL/6 male mice [11]; 5 weeks after administration): 105.42 ± 7.54 mg/dL | Blood glucose level (fasting state) (C57BL/6 male mice [12]; time after administration 0 (head prints min.)): 142.82 ± 7.03 mg/dL | Blood glucose level (fasting state) (C57BL/6 male mice [12]; time after administration 2 (head prints min.)): 164.79 ± 9.82 mg/dL | Blood glucose level (fasting state) (C57BL/6 male mice [12]; time after administration 5 (head prints min.)): 124.75 ± 7.14 mg/dL
